Laboratory results published in patent publication US9631050B2, “Antimicrobial cationic polycarbonates” (International Business Machines Corporation, priority 2013, dated 2017).

Tested on: mammalian red blood cells
Protocol: HC50 is defined as the concentration (in mg/L) of cationic polymer that causes 50% of mammalian red blood cells to undergo hemolysis. HC50 values of 500 mg/L or higher are desirable.
Fresh rabbit blood cells or rat blood cells were subjected to 25× dilution with phosphate buffered saline (PBS) to obtain an approximate 4% v/v suspension for use in this experiment. Red blood cell suspension (300 microliters) was added to each tube containing an equal volume (300 microliters) of polymer solution in PBS (with final polymer concentrations ranging from 3.9-500 mg/L). The tubes were then incubated at 37° C. for 1 hour before they were centrifuged at 1000×g for 5 min. Aliquots (100 microliters) of supernatant were transferred to each well of a 96-well plate and analyzed for hemoglobin release at 576 nm using a microplate reader (TECAN, Switzerland). Red blood cells suspension incubated with PBS was used as negative control. Absorbance of red blood cells lyzed with 0.1% v/v Triton X-100 was used as the positive control and taken to be 100% hemolytic. Percentage of hemolysis was calculated using the following formula: Hemolysis (%)=[(O.D.576 nm of treated sample−O.D.576 nm of negative control)/(O.D.576 nm of positive control−O.D.576 nm of negative control)]×100. Data are expressed as mean±standard deviations of 4 replicates.

Substance: Butyl imidazole [Example 36]
- HC50: 250 mg/L
